US20250195478A1, “DUAL INHIBITORS OF VISTA AND PD-1 PATHWAYS” (Aurigene Oncology Limited, priority 2016, published 2025)

Assays:
recombinant human VISTA = biological target: T1, recombinant human VISTA (Homo sapiens, UniProt Q9H7M9); assay: Human PBMC IFN-γ release assay in the presence of recombinant human VISTA; assay type: cell-based; conditions: 100 nM compound, plate-coated VISTA + anti-CD3, anti-CD28, 72 h, ELISA
T1 construct: Fc (Fc chimera); purchased R&D Systems 7126-B7
Experimental: Example 2: Rescue of Mouse Splenocyte Proliferation in the Presence of Recombinant VISTA
Vehicle: Milli Q water; RPMI 1640 (GIBCO, Cat #11875); Fetal Bovine Serum [Hyclone, Cat #SH30071.03]; Penicilin (10000 unit/ml)-Streptomycin (10,000 μg/ml) liquid (GIBCO, Cat #15140-122); MEM Sodium Pyruvate solution 100 mM (100×), Liquid (GIBCO, Cat #11360); Nonessential amino acid (GIBCO, Cat #11140); L-Glutamine (GIBCO, Cat #25030); Recombinant human VISTA (rhGi24 VISTA/B7-H5 Fc chimera (R&D systems, cat no: 7126-B7); Anti-h/m Gi24/VISTA/B7-H5 purified mouse monoclonal IgG2B (R&D systems, cat no: MAB7126); Mouse IgG2B isotype control (R&D Systems cat no: MAB 004); Anti human-CD3 antibody (eBiosciences-16-0039); Anti human-CD28 antibody (eBiosciences-16-0289); Histopaque (density-1.077 gm/ml) (SIGMA 1077); Trypan Blue solution (SIGMA-T8154); Hemacytometer (Bright line-SIGMA Z359629); FACS Buffer containing Phosphate Buffered Saline (PBS) pH 7.2; (HiMedia TS1006) with 0.1% Bovine Serum Albumin (BSA) (SIGMA A7050) and sodium azide (SIGMA 08591); 96-well format ELISA plates (Corning 3599); 96-well format ELISA plates (Corning 3361); BD FACS caliber (E6016); Centrifuge (Eppendorf 5810 R); Human IFN-γ Duo set ELISA kit (R&D Systems; cat no: DY-285).
96-well cell culture plates were pre-coated with recombinant human VISTA (2.5 μg/ml) and anti-human CD3 (2.5 μg/ml), and stored at 4° C. overnight. Anti-human VISTA and isotype control antibodies were either coated along with the VISTA or incubated for 30 min next day before addition of cells. On the next day, plates were washed with 1×PBS and then incubated with test compounds for 30 min. Isolated PBMC (0.1×10^6 cells/well) and anti-human CD28 antibodies (lug/ml) were added to the wells. The culture was further incubated for 72 h at 37° C. with 5% CO2. After 72 h of incubation the cell culture supernatants were collected after brief centrifugation at 200 g×5 min at 4° C. and processed for human IFN-γ measurement by ELISA following manufacturer's protocol (R&D Systems; DY-285).
In brief, 96-well ELISA plates were coated with 100 μl/well of capture antibody in coating buffer and incubated overnight at 4° C. Plates were washed five times with wash buffer and further blocked with 200 μl of 1× assay diluents for 1 hr at RT. Following wash step, 100 μl of cell culture supernatants were added to wells and further incubated for 2 hr at RT. Appropriate standards were also included. After wash step, plate was incubated for one hour with 100 μl/well of detection antibody. The wash step was repeated and the plate was incubated for 30 min with 100 μl/well of Avidin-HRP. The plate was washed four times with wash buffer and subsequently incubated for 15 min with 100 μl/well of substrate solution. 50 μl of stop solution was added to each well and the plate was read at 450 nm using Gen5 ver 2.05. Delta OD values were used for calculating the concentrations. The absorbance values were plotted against the standards and the concentration of IFN-γ was determined using GraphPad Prism software. Each experimental condition was carried out in triplicates.
The percent rescue of IFN-γ release of the selected compounds of present invention are set forth below wherein “A” refers to compounds having more than 70% rescue of IFN-γ release, “B” refers to compounds having rescue of IFN-γ release ranges from 50% to 69.9% and “C” refers to compounds having less than 50% rescue of IFN-γ release.

Recombinant mouse PD-L1 = biological target: T2, Recombinant mouse PD-L1 (Mus musculus, UniProt Q9EP73); assay: Rescue of mouse splenocyte proliferation in the presence of recombinant PD-L1 (CFSE proliferation assay); assay type: cell-based; conditions: 100 nM compound; anti-CD3/CD28 stimulated mouse splenocytes + PD-L1; 72 h; stimulated splenocytes = 100%; read-out: PDL1 (rescue of proliferation @ 100 nM)
T2 construct: Fc (Fc chimera); purchased R&D Systems 1019-B7-100
T2 sequence (Q9EP73 19-238 limits assumed): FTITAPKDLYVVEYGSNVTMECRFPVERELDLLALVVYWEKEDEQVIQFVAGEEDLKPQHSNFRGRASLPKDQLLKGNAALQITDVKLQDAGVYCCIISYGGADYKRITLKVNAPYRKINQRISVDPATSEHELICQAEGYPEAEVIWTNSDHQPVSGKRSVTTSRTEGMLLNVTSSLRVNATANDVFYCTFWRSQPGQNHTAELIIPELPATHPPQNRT
Experimental: Example 1: Rescue of Mouse Splenocyte Proliferation in the Presence of Recombinant PD-L1/PD-L2
Recombinant mouse PD-L1 (rm-PDL-1, cat no: 1019-B7-100; R&D Systems) were used as the source of PD-L1.
Mouse splenocytes harvested from 6-8 weeks old C57 BL6 mice; RPMI 1640 (GIBCO, Cat #11875); DMEM with high glucose (GIBCO, Cat #D6429); Fetal Bovine Serum [Hyclone, Cat #SH30071.03]; Penicillin (10000unit/mL)-Streptomycin (10,000 μg/mL) Liquid (GIBCO, Cat #15140-122); MEM Sodium Pyruvate solution 100 mM (100×), Liquid (GIBCO, Cat #11360); Nonessential amino acid (GIBCO, Cat #11140); L-Glutamine (GIBCO, Cat #25030); Anti-CD3 antibody (eBiosciences-16-0032); Anti-CD28 antibody (eBiosciences-16-0281); ACK lysis buffer (1mL) (GIBCO, Cat #-A10492); Histopaque (density-1.083 gm/mL) (SIGMA 10831); Trypan blue solution (SIGMA-T8154); 2 mL Norm Ject Luer Lock syringe-(Sigma 2014-12); 40 μm nylon cell strainer (BD FALCON 35230); Hemacytometer (Bright line-SIGMA Z359629); FACS Buffer (PBS/0.1% BSA): Phosphate Buffered Saline (PBS) pH 7.2 (HiMedia TS1006) with 0.1% Bovine Serum Albumin (BSA) (SIGMA A7050) and sodium azide (SIGMA 08591); 5 mM stock solution of CFSE: CFSE stock solution was prepared by diluting lyophilized CFSE with 180 μL of Dimethyl sulfoxide (DMSO C2H6SO, SIGMA-D-5879) and aliquoted in to tubes for further use. Working concentrations were titrated from 10 μM to 1 μM. (eBioscience-650850-85); 0.05% Trypsin and 0.02% EDTA (SIGMA 59417C); 96-well format ELISA plates (Corning CLS3390); BD FACS caliber (E6016);
Recombinant mouse B7-H1/PDL1 Fc Chimera, (rm-PD-L1 cat no: 1019-B7-100).
Splenocytes harvested in a 50 mL falcon tube by mashing mouse spleen in a 40 μm cell strainer were further treated with 1 mL ACK lysis buffer for 5 min at room temperature.
After washing with 9 mL of RPMI complete media, cells were re-suspended in 3 mL of 1×PBS in a 15 mL tube. 3 mL of Histopaque was added carefully to the bottom of the tube without disturbing overlaying splenocyte suspension. After centrifuging at 800×g for 20 min at room temperature, the opaque layer of splenocytes was collected carefully without disturbing/mixing the layers. Splenocytes were washed twice with cold 1×PBS followed by total cell counting using Trypan Blue exclusion method and used further for cell based assays.
Splenocytes were cultured in RPMI complete media (RPMI +10% fetal bovine serum+1 mM sodium pyruvate+10,000units/mL penicillin and 10,000 μg/mL streptomycin) and maintained in a CO2 incubator with 5% CO2 at 37° C.
CFSE is a dye that passively diffuses into cells and binds to intracellular proteins. 1×10^6 cells/mL of harvested splenocytes were treated with 5 μM of CFSE in pre-warmed 1×PBS/0.1% BSA solution for 10 min at 37° C. Excess CFSE was quenched using 5 volumes of ice-cold culture media to the cells and incubated on ice for 5 min. CFSE labelled splenocytes were further given three washes with ice cold complete RPMI media. CFSE labelled 1×10^5 splenocytes added to wells containing either MDA-MB231 cells (1×10^5 cells cultured in high glucose DMEM medium) or recombinant […] PDL-1 (100 ng/mL) and test compounds. Splenocytes were stimulated with anti-mouse CD3 and anti-mouse CD28 antibody (lug/mL each), and the culture was further incubated for 72 h at 37° C. with 5% CO2. Cells were harvested and washed thrice with ice cold FACS buffer and % proliferation was analysed by flow cytometry with 488 nm excitation and 521 nm emission filters.
Percent splenocyte proliferation was analysed using cell quest FACS program and percent rescue of splenocyte proliferation by compound was estimated after deduction of % background proliferation value and normalising to % stimulated splenocyte proliferation (positive control) as 100%.
Stimulated splenocytes: Splenocytes+anti-CD3/CD28 stimulation
Background proliferation: Splenocytes+anti-CD3/CD28+PD-L1
Compound proliferation: Splenocytes+anti-CD3/CD28+PD-L1+Compound […]

T1 sequence (Q9H7M9 with tags, fused parts or gaps limits assumed): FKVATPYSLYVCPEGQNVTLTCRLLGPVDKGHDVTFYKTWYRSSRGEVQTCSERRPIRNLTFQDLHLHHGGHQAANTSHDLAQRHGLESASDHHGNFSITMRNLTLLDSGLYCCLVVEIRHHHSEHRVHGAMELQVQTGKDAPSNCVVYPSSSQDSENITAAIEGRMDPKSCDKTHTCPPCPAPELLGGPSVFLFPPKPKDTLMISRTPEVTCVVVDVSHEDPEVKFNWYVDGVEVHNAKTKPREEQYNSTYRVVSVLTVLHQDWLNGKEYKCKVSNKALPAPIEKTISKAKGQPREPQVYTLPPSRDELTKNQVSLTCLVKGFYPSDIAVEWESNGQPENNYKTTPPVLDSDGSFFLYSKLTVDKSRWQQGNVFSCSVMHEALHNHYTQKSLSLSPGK

Structure (SMILES) | VISTA (rescue of IFN γ release @ 100 nM) (recombinant human VISTA) | activation at 0.1 µM (Recombinant mouse PD-L1)
CC(O)[C@H](NC(=O)N[C@@H](CC(N)=O)c1nc([C@@H](N)CO)no1)C(=O)O (some centres unmarked) [Compound 1] | A (more than 70% rescue of IFN-γ release) | 97%
CC(O)[C@H](NC(=O)N[C@@H](CC(N)=O)c1nc([C@@H](N)C(C)O)no1)C(=O)O (some centres unmarked) [Compound 2] | A (more than 70% rescue of IFN-γ release) | 75%
N[C@@H](CO)c1noc([C@H](CC(=O)O)NC(=O)N[C@@H](CO)C(=O)O)n1 [Compound 3] | C (less than 50% rescue of IFN-γ release) | 91%
NCCCC[C@H](NC(=O)N[C@@H](CC(N)=O)c1nc([C@@H](N)CO)no1)C(=O)O [Compound 4] | B (rescue of IFN-γ release ranges from 50% to 69.9%) | 
CC(O)[C@H](NC(=O)N[C@@H](CC(N)=O)c1nc([C@@H](N)Cc2ccc(O)cc2)no1)C(=O)O (some centres unmarked) [Compound 5] | A (more than 70% rescue of IFN-γ release) | 
CN[C@@H](CO)c1noc([C@H](CC(N)=O)NC(=O)N[C@H](C(=O)O)C(C)O)n1 (some centres unmarked) [Compound 6] | C (less than 50% rescue of IFN-γ release) | 63%
CC(O)[C@H](NC(=O)N[C@@H](CC(N)=O)c1nc([C@@H](N)CCCCN)no1)C(=O)O (some centres unmarked) [Compound 7] | C (less than 50% rescue of IFN-γ release) | 96%
CC(O)[C@H](NC(=O)N[C@@H](Cc1cc2ccccc2[nH]1)c1nc([C@@H](N)CO)no1)C(=O)O (some centres unmarked) [Compound 8] | B (rescue of IFN-γ release ranges from 50% to 69.9%) | 60%
CC(O)[C@H](NC(=O)N[C@H](c1nc([C@@H](N)CO)no1)C(C)C)C(=O)O (some centres unmarked) [Compound 9] | C (less than 50% rescue of IFN-γ release) | 
CCCCCCNC(=O)C[C@H](NC(=O)N[C@H](C(=O)O)C(C)O)c1nc([C@@H](N)CO)no1 (some centres unmarked) [Compound 10] | C (less than 50% rescue of IFN-γ release) | 
CCC(C)[C@H](NC(=O)N[C@@H](CCC(=O)O)C(=O)O)c1nc([C@@H](N)CCC(N)=O)no1 (some centres unmarked) [Compound 11] | C (less than 50% rescue of IFN-γ release) | 
NCCCC[C@H](N)c1noc([C@H](CCC(N)=O)NC(=O)N[C@@H](CO)C(=O)O)n1 [Compound 12] | B (rescue of IFN-γ release ranges from 50% to 69.9%) | 
N[C@@H](CO)c1noc([C@H](CO)NC(=O)N[C@@H](CO)C(=O)O)n1 [Compound 13] | B (rescue of IFN-γ release ranges from 50% to 69.9%) | 
N[C@@H](Cc1cnc[nH]1)c1noc([C@H](CC(=O)O)NC(=O)N[C@@H](CO)C(=O)O)n1 [Compound 14] | B (rescue of IFN-γ release ranges from 50% to 69.9%) | 59%
CC(O)[C@H](NC(=O)N[C@@H](CC(=O)O)c1nc([C@@H](N)CCCNC(=N)N)no1)C(=O)O (some centres unmarked) [Compound 15] | C (less than 50% rescue of IFN-γ release) | 70%
N=C(N)NCCC[C@H](N)c1noc([C@H](CC(=O)O)NC(=O)N[C@@H](CO)C(=O)O)n1 [Compound 16] | B (rescue of IFN-γ release ranges from 50% to 69.9%) | 
CC(=O)NCCCC[C@@H](NC(=O)N[C@H](C(=O)O)C(C)O)c1nc([C@@H](N)CO)no1 (some centres unmarked) [Compound 17] | C (less than 50% rescue of IFN-γ release) | 
CCCCCCNC(=O)CC[C@H](NC(=O)N[C@H](C(=O)O)C(C)O)c1nc([C@@H](N)CO)no1 (some centres unmarked) [Compound 18] | C (less than 50% rescue of IFN-γ release) | 
CC(O)[C@@H](NC(=O)N[C@@H](CC(N)=O)c1nc([C@@H](N)CO)no1)C(=O)O (some centres unmarked) [Compound 20] | A (more than 70% rescue of IFN-γ release) | 
CC(O)[C@H](NC(=O)N[C@@H](CC(N)=O)c1nc(C2(N)CCCC2)no1)C(=O)O (some centres unmarked) [Compound 25] | C (less than 50% rescue of IFN-γ release) | 
CCC(C)[C@H](NC(=O)N[C@H](C(=O)O)[C@@H](C)O)c1nc([C@@H](N)CO)no1 (some centres unmarked) [Compound 27] | A (more than 70% rescue of IFN-γ release) | 
